In PubChem BioAssay (NCI):
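Cells were grown in 96-well plates and exposed to each compound for 48 hours at five concentrations; endpoints were interpolated linearly between bracketing concentrations, or set to the highest concentration if not reached. TGI: total growth inhibition.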

What was measured:
Experiment in all cases: DTP human tumour cell line panel, 48 h
786-0 renal = system: 786-0 renal
A498 renal = system: A498 renal
A549 NSCLC = system: A549 NSCLC
ACHN renal = system: ACHN renal
BT-549 breast = system: BT-549 breast
CCRF-CEM leukemia = system: CCRF-CEM leukemia
COLO 205 colon = system: COLO 205 colon
DU-145 prostate = system: DU-145 prostate
EKVX NSCLC = system: EKVX NSCLC
HCC-2998 colon = system: HCC-2998 colon
HCT-116 colon = system: HCT-116 colon
HCT-15 colon = system: HCT-15 colon
HL-60(TB) leukemia = system: HL-60(TB) leukemia
HOP-62 NSCLC = system: HOP-62 NSCLC
HOP-92 NSCLC = system: HOP-92 NSCLC
HS 578T breast = system: HS 578T breast
HT29 colon = system: HT29 colon
IGROV1 ovarian = system: IGROV1 ovarian
K-562 leukemia = system: K-562 leukemia
KM12 colon = system: KM12 colon
LOX IMVI melanoma = system: LOX IMVI melanoma
M14 melanoma = system: M14 melanoma
MALME-3M melanoma = system: MALME-3M melanoma
MCF7 breast = system: MCF7 breast
MDA-MB-231 breast = system: MDA-MB-231 breast
MDA-MB-435 = system: MDA-MB-435
MDA-N = system: MDA-N
MOLT-4 leukemia = system: MOLT-4 leukemia
NCI-H226 lung = system: NCI-H226 lung
NCI-H23 lung = system: NCI-H23 lung
NCI-H460 lung = system: NCI-H460 lung
NCI-H522 lung = system: NCI-H522 lung
NCI/ADR-RES ovarian = system: NCI/ADR-RES ovarian
OVCAR-3 ovarian = system: OVCAR-3 ovarian
OVCAR-4 ovarian = system: OVCAR-4 ovarian
OVCAR-5 ovarian = system: OVCAR-5 ovarian
OVCAR-8 ovarian = system: OVCAR-8 ovarian
PC-3 prostate = system: PC-3 prostate
RPMI-8226 leukemia = system: RPMI-8226 leukemia
RXF 393 renal = system: RXF 393 renal
SF-268 CNS = system: SF-268 CNS
SF-295 CNS = system: SF-295 CNS
SF-539 CNS = system: SF-539 CNS
SK-MEL-2 melanoma = system: SK-MEL-2 melanoma
SK-MEL-28 melanoma = system: SK-MEL-28 melanoma
SK-MEL-5 melanoma = system: SK-MEL-5 melanoma
SK-OV-3 ovarian = system: SK-OV-3 ovarian
SN12C renal = system: SN12C renal
SNB-19 CNS = system: SNB-19 CNS
SNB-75 CNS = system: SNB-75 CNS
SR leukemia = system: SR leukemia
SW-620 colon = system: SW-620 colon
T-47D breast = system: T-47D breast
TK-10 renal = system: TK-10 renal
U251 CNS = system: U251 CNS
UACC-257 melanoma = system: UACC-257 melanoma
UACC-62 melanoma = system: UACC-62 melanoma
UO-31 renal = system: UO-31 renal
CAKI-1 renal = system: CAKI-1 renal

CO[C@@H]1[C@@H](OC2OC(C)C(OC3CC(C)(O)C(OC(=O)CC(C)C)C(C)O3)C(N(C)C)C2O)[C@@H](CC=O)C[C@@H](C)C(=O)/C=C/C2O[C@H]2C[C@@H](C)OC(=O)C[C@H]1OC(C)=O (stereo not given in full)
TGI (786-0 renal): 50.2 µM
TGI (A498 renal): 52 µM
TGI (A549 NSCLC): > 100 µM
TGI (ACHN renal): 46.8 µM
TGI (BT-549 breast): 40.5 µM
TGI (CCRF-CEM leukemia): 34.3 µM
TGI (COLO 205 colon): 26.2 µM
TGI (DU-145 prostate): 28 µM
TGI (EKVX NSCLC): > 100 µM
TGI (HCC-2998 colon): 32 µM
TGI (HCT-116 colon): 30.8 µM
TGI (HCT-15 colon): 36 µM
TGI (HL-60(TB) leukemia): 25 µM
TGI (HOP-62 NSCLC): 37.8 µM
TGI (HOP-92 NSCLC): 27 µM
TGI (HS 578T breast): > 100 µM
TGI (HT29 colon): 26.4 µM
TGI (IGROV1 ovarian): 61 µM
TGI (K-562 leukemia): 39.8 µM
TGI (KM12 colon): 32.2 µM
TGI (LOX IMVI melanoma): 30.4 µM
TGI (M14 melanoma): 30 µM
TGI (MALME-3M melanoma): 27.9 µM
TGI (MCF7 breast): 30.7 µM
TGI (MDA-MB-231 breast): 45.6 µM
TGI (MDA-MB-435): 45.2 µM
TGI (MDA-N): 29.8 µM
TGI (MOLT-4 leukemia): 27.7 µM
TGI (NCI-H226 lung): 33.5 µM
TGI (NCI-H23 lung): 45.8 µM
TGI (NCI-H460 lung): 41.8 µM
TGI (NCI-H522 lung): 36 µM
TGI (NCI/ADR-RES ovarian): 98.9 µM
TGI (OVCAR-3 ovarian): 40.5 µM
TGI (OVCAR-4 ovarian): 86.7 µM
TGI (OVCAR-5 ovarian): 31.8 µM
TGI (OVCAR-8 ovarian): > 100 µM
TGI (PC-3 prostate): 38.4 µM
TGI (RPMI-8226 leukemia): 47.4 µM
TGI (RXF 393 renal): 64.7 µM
TGI (SF-268 CNS): > 100 µM
TGI (SF-295 CNS): 48.2 µM
TGI (SF-539 CNS): 38.5 µM
TGI (SK-MEL-2 melanoma): 43.7 µM
TGI (SK-MEL-28 melanoma): 34.8 µM
TGI (SK-MEL-5 melanoma): 32.9 µM
TGI (SK-OV-3 ovarian): > 100 µM
TGI (SN12C renal): 46.2 µM
TGI (SNB-19 CNS): 60.1 µM
TGI (SNB-75 CNS): > 100 µM
TGI (SR leukemia): 42.4 µM
TGI (SW-620 colon): 35.8 µM
TGI (T-47D breast): 84.4 µM
TGI (TK-10 renal): 50.9 µM
TGI (U251 CNS): 35.7 µM
TGI (UACC-257 melanoma): 34 µM
TGI (UACC-62 melanoma): 60.1 µM
TGI (UO-31 renal): 73.6 µM

NNC(=O)c1c(Cl)c(Cl)c(Cl)c(Cl)c1-c1nc2ccccc2[nH]1
TGI (786-0 renal): 55.8 µM
TGI (A498 renal): 49.9 µM
TGI (A549 NSCLC): 45.7 µM
TGI (ACHN renal): 67.2 µM
TGI (BT-549 breast): 46.5 µM
TGI (CAKI-1 renal): 38 µM
TGI (CCRF-CEM leukemia): 54.2 µM
TGI (COLO 205 colon): 62 µM
TGI (DU-145 prostate): 38.3 µM
TGI (EKVX NSCLC): 45.3 µM
TGI (HCC-2998 colon): 22.5 µM
TGI (HCT-116 colon): 32.6 µM
TGI (HCT-15 colon): 40.9 µM
TGI (HL-60(TB) leukemia): 38.1 µM
TGI (HOP-62 NSCLC): 21.4 µM
TGI (HOP-92 NSCLC): 43.9 µM
TGI (HS 578T breast): 86.8 µM
TGI (HT29 colon): 61.8 µM
TGI (IGROV1 ovarian): 27.7 µM
TGI (K-562 leukemia): 26 µM
TGI (KM12 colon): 29.1 µM
TGI (LOX IMVI melanoma): 30.3 µM
TGI (M14 melanoma): 23.6 µM
TGI (MALME-3M melanoma): 37.9 µM
TGI (MCF7 breast): 23 µM
TGI (MDA-MB-231 breast): > 100 µM
TGI (MDA-MB-435): 6.38 µM
TGI (MDA-N): 18.9 µM
TGI (MOLT-4 leukemia): 26.3 µM
TGI (NCI-H226 lung): 65.4 µM
TGI (NCI-H23 lung): 59.5 µM
TGI (NCI-H460 lung): 31 µM
TGI (NCI-H522 lung): > 100 µM
TGI (NCI/ADR-RES ovarian): 59.8 µM
TGI (OVCAR-3 ovarian): 24.4 µM
TGI (OVCAR-5 ovarian): > 100 µM
TGI (OVCAR-8 ovarian): > 100 µM
TGI (PC-3 prostate): > 100 µM
TGI (RPMI-8226 leukemia): > 100 µM
TGI (RXF 393 renal): 21.9 µM
TGI (SF-268 CNS): > 100 µM
TGI (SF-295 CNS): 24 µM
TGI (SF-539 CNS): > 100 µM
TGI (SK-MEL-2 melanoma): 29.4 µM
TGI (SK-MEL-28 melanoma): 53.4 µM
TGI (SK-MEL-5 melanoma): 29.9 µM
TGI (SK-OV-3 ovarian): 59.2 µM
TGI (SN12C renal): > 100 µM
TGI (SNB-19 CNS): 88.8 µM
TGI (SNB-75 CNS): 38.2 µM
TGI (SR leukemia): 15.6 µM
TGI (SW-620 colon): 67.6 µM
TGI (T-47D breast): 24 µM
TGI (TK-10 renal): 63.2 µM
TGI (UACC-257 melanoma): 28.1 µM
TGI (UACC-62 melanoma): 24.7 µM
TGI (UO-31 renal): 39.5 µM
